This note sets out measurements from patent US10597380B2, “Pyridazinone-based broad spectrum anti-influenza inhibitors” (Hoffmann-La Roche Inc., priority 2017, dated 2020).

The structures appear in SMILES notation. pIC50: −log10 of the molar value.

For the experiment, the system named is Influenza A/WSN/33-Luciferase virus. Put plainly: microbe, parasite or virus in culture. In kind it is cell-based. As to conditions: A549, 72 h, luciferase signal three days later, read-out: IC50 antiviral activity (Luciferase reporter assay). In general terms: Reporter assays use an easily measured gene product as a stand-in for the process of interest.
The pIC50 is −log10 of the IC50, conventionally taken in molar units. For the compound `CN1CCc2c(Nc3cccn(C)c3=O)nn(-c3ccc(OC(F)(F)F)cc3)c(=O)c2C1` [Example 132, 6-Methyl-1-[(1-methyl-2-oxo-3-pyridyl)amino]-3-[4-(trifluoromethoxy)phenyl]-7,8-dihydro-5H-pyrido[3,4-d]pyridazin-4-one], the negative logarithm of the IC50 (pIC50) is 7.06. As to `CN(C)CCn1cccc(Nc2nn(-c3ccc(OC(F)(F)F)cc3)c(=O)c3ccccc23)c1=O` [Example 70, 4-[[1-[2-(dimethylamino)ethyl]-2-oxo-3-pyridyl]amino]-2-[4-(trifluoromethoxy)phenyl]phthalazin-1-one], the pIC50 was 7.72.

With `Cn1cccc(Nc2nn(-c3ccc(OC(F)(F)F)cc3)c(=O)c3c2CCCC3)c1=O` [Example 21, 4-[(1-methyl-2-oxo-3-pyridyl)amino]-2-[4-(trifluoromethoxy)phenyl]-5,6,7,8-tetrahydrophthalazin-1-one], the pIC50 is 8.30. To `CC(C)(C)c1ccc(-n2nc(Nc3ccc[nH]c3=O)c3ccccc3c2=O)cc1` [Example 15, 2-(4-tert-butylphenyl)-4-[(2-oxo-1H-pyridin-3-yl)amino]phthalazin-1-one] belongs 6.88; to `O=c1c(Nc2nn(-c3ccc(OC(F)(F)F)cc3)c(=O)c3c2CCC3)cccn1CCNC1COC1` [Example 168, 1-[[1-[2-(Oxetan-3-ylamino)ethyl]-2-oxo-3-pyridyl]amino]-3-[4-(trifluoromethoxy)phenyl]-6,7-dihydro-5H-cyclopenta[d]pyridazin-4-one], 7.62. Take `CCOC(=O)C1CN(CCn2cccc(Nc3nn(-c4ccc(OC(F)(F)F)cc4)c(=O)c4c3CCC4)c2=O)CCO1` (stereo not shown) [Example 41, ethyl 4-[2-[2-oxo-3-[[4-oxo-3-[4-(trifluoromethoxy)phenyl]-6,7-dihydro-5H-cyclopenta[d]pyridazin-1-yl]amino]-1-pyridyl]ethyl]morpholine-2-carboxylate]: the pIC50 was 7.22. Take `CC(=O)N1CCc2c(Nc3cccn(C)c3=O)nn(-c3ccc(OC(F)(F)F)cc3)c(=O)c2C1` [Example 148, 6-Acetyl-1-[(1-methyl-2-oxo-3-pyridyl)amino]-3-[4-(trifluoromethoxy)phenyl]-7,8-dihydro-5H-pyrido[3,4-d]pyridazin-4-one]: the pIC50 is 7.72. Regarding `CC(C)c1cc(Nc2nn(-c3ccc(OC(F)(F)F)cc3)c(=O)c3c2CCC3)c(=O)n(C)c1` [Example 36, 1-[(5-isopropyl-1-methyl-2-oxo-3-pyridyl)amino]-3-[4-(trifluoromethoxy)phenyl]-6,7-dihydro-5H-cyclopenta[d]pyridazin-4-one], the pIC50 was 6.24. For `COC(=O)[C@H]1CCCN1CCn1cccc(Nc2nn(-c3ccc(OC(F)(F)F)cc3)c(=O)c3ccccc23)c1=O` [Example 6, methyl (2R)-1-[2-[2-oxo-3-[[4-oxo-3-[4-(trifluoromethoxy)phenyl]phthalazin-1-yl]amino]-1-pyridyl]ethyl]pyrrolidine-2-carboxylate], the pIC50 was 7.28. `O=C(O)[C@H]1CCCN1CCn1cccc(Nc2nn(-c3ccc(OC(F)(F)F)cc3)c(=O)c3ccccc23)c1=O` [Example 116, (2R)-1-[2-[2-oxo-3-[[4-oxo-3-[4-(trifluoromethoxy)phenyl]phthalazin-1-yl]amino]-1-pyridyl]ethyl]pyrrolidine-2-carboxylic acid]: the pIC50 was 6.58.

With `O=C(O)COCCn1cccc(Nc2nn(-c3ccc(OC(F)(F)F)cc3)c(=O)c3ccccc23)c1=O` [Example 112, 2-[2-[2-oxo-3-[[4-oxo-3-[4-(trifluoromethoxy)phenyl]phthalazin-1-yl]amino]-1-pyridyl]ethoxy]acetic acid], the pIC50 was 5.52. For `COC(=O)N1CCc2c(Nc3cccn(C)c3=O)nn(-c3ccc(OC(F)(F)F)cc3)c(=O)c2C1` [Example 153, Methyl 1-[(1-methyl-2-oxo-3-pyridyl)amino]-4-oxo-3-[4-(trifluoromethoxy)phenyl]-7,8-dihydro-5H-pyrido[3,4-d]pyridazine-6-carboxylate], the pIC50 is 7.21. As for `Cn1cccc(Nc2nn(-c3ccc(OC(F)(F)F)cc3)c(=O)c3c2CCOC3)c1=O` [Example 62, 1-[(1-methyl-2-oxo-3-pyridyl)amino]-3-[4-(trifluoromethoxy)phenyl]-7,8-dihydro-5H-pyrano[3,4-d]pyridazin-4-one], the pIC50 was 6.73. With `Cn1cccc(Nc2nn(-c3ccc(OC(F)(F)F)cc3)c(=O)c3c2CN(S(C)(=O)=O)CC3)c1=O` [Example 157, 4-[(1-Methyl-2-oxo-3-pyridyl)amino]-6-methylsulfonyl-2-[4-(trifluoromethoxy)phenyl]-7,8-dihydro-5H-pyrido[3,4-d]pyridazin-1-one], the pIC50 was 6.78. Turning to `Cn1cccc(Nc2nn(-c3ccc(C(F)(F)F)cc3)c(=O)c3c2CCC3)c1=O` [Example 60, 1-[(1-methyl-2-oxo-3-pyridyl)amino]-3-[4-(trifluoromethyl)phenyl]-6,7-dihydro-5H-cyclopenta[d]pyridazin-4-one], the pIC50 was 7.96.

Turning to `Cn1cc(C(F)(F)F)cc(Nc2nn(-c3ccc(OC(F)(F)F)cc3)c(=O)c3c2CCC3)c1=O` [Example 34, 1-[[1-methyl-2-oxo-5-(trifluoromethyl)-3-pyridyl]amino]-3-[4-(trifluoromethoxy)phenyl]-6,7-dihydro-5H-cyclopenta[d]pyridazin-4-one], the pIC50 is 6.71. In the case of `NCCn1cccc(Nc2nn(-c3ccc(OC(F)(F)F)cc3)c(=O)c3c2CCC3)c1=O` [Example 130, 1-[[1-(2-Aminoethyl)-2-oxo-3-pyridyl]amino]-3-[4-(trifluoromethoxy)phenyl]-6,7-dihydro-5H-cyclopenta[d]pyridazin-4-one], the pIC50 is 7.21.

`O=C(O)C1CCN(CCn2cccc(Nc3nn(-c4ccc(OC(F)(F)F)cc4)c(=O)c4c3CCC4)c2=O)C1` (stereo not shown) [Example 120, 1-[2-[2-oxo-3-[[4-oxo-3-[4-(trifluoromethoxy)phenyl]-6,7-dihydro-5H-cyclopenta[d]pyridazin-1-yl]amino]-1-pyridyl]ethyl]pyrrolidine-3-carboxylic acid]: the pIC50 is 5.95. In the case of `CNC(=O)C(C)(C)Cn1cccc(Nc2nn(-c3ccc(OC(F)(F)F)cc3)c(=O)c3ccccc23)c1=O` [Example 99, N,2,2-trimethyl-3-[2-oxo-3-[[4-oxo-3-[4-(trifluoromethoxy)phenyl]phthalazin-1-yl]amino]-1-pyridyl]propanamide], the pIC50 is 6.54. To `Cn1cccc(Nc2nn(-c3ccc(OC(F)(F)F)cc3)c(=O)c3ccccc23)c1=O` [Example 1, 4-[(1-methyl-2-oxo-3-pyridyl)amino]-2-[4-(trifluoromethoxy)phenyl]phthalazin-1-one] belongs 7.66. Consider `Cn1cccc(Nc2nn(-c3cnc(C(C)(C)C)nc3)c(=O)c3ccccc23)c1=O` [Example 9, 2-(2-tert-butylpyrimidin-5-yl)-4-[(1-methyl-2-oxo-3-pyridyl)amino]phthalazin-1-one], for which the pIC50 is 6.56. For the compound `O=C(O)CCCn1cccc(Nc2nn(-c3ccc(OC(F)(F)F)cc3)c(=O)c3ccccc23)c1=O` [Example 110, 4-[2-oxo-3-[[4-oxo-3-[4-(trifluoromethoxy)phenyl]phthalazin-1-yl]amino]-1-pyridyl]butanoic acid], the pIC50 is 6.32.

Regarding `COc1cc(-n2nc(Nc3cccn(C)c3=O)c3c(c2=O)CCC3)ccc1C(F)(F)F` [Example 173, 3-[3-Methoxy-4-(trifluoromethyl)phenyl]-1-[(1-methyl-2-oxo-3-pyridyl)amino]-6,7-dihydro-5H-cyclopenta[d]pyridazin-4-one], the pIC50 was 4.13.

Consider `O=C(Cn1cccc(Nc2nn(-c3ccc(OC(F)(F)F)cc3)c(=O)c3ccccc23)c1=O)NCCO` [Example 92, N-(2-hydroxyethyl)-2-[2-oxo-3-[[4-oxo-3-[4-(trifluoromethoxy)phenyl]phthalazin-1-yl]amino]-1-pyridyl]acetamide], for which the pIC50 was 6.75. `COC1CCN(CCn2cccc(Nc3nn(-c4ccc(OC(F)(F)F)cc4)c(=O)c4c3CCC4)c2=O)C1` (stereo not shown) [Example 42, 1-[[1-[2-(3-methoxypyrrolidin-1-yl)ethyl]-2-oxo-3-pyridyl]amino]-3-[4-(trifluoromethoxy)phenyl]-6,7-dihydro-5H-cyclopenta[d]pyridazin-4-one]: the pIC50 is 7.40. To `CC(=O)N1CCc2c(c(Nc3cncn(C)c3=O)nn(-c3ccc(OC(F)(F)F)cc3)c2=O)C1` [Example 151, 6-Acetyl-4-[(1-methyl-6-oxo-pyrimidin-5-yl)amino]-2-[4-(trifluoromethoxy)phenyl]-7,8-dihydro-5H-pyrido[3,4-d]pyridazin-1-one] belongs 6.43. On to `Cc1ccc(Nc2nn(-c3ccc(OC(F)(F)F)cc3)c(=O)c3ccccc23)c(=O)n1C` [Example 64, 4-[(1,6-dimethyl-2-oxo-3-pyridyl)amino]-2-[4-(trifluoromethoxy)phenyl]phthalazin-1-one], for which the pIC50 was 6.45.

Turning to `COC(=O)Cn1cccc(Nc2nn(-c3ccc(OC(F)(F)F)cc3)c(=O)c3ccccc23)c1=O` [Example 3, methyl 2-[2-oxo-3-[[4-oxo-3-[4-(trifluoromethoxy)phenyl]phthalazin-1-yl]amino]-1-pyridyl]acetate], the pIC50 was 7.42.

Take `O=c1c(Nc2nn(-c3ccc(OC(F)(F)F)cc3)c(=O)c3c2CCC3)cncn1CCN1CC(O)C1` [Example 169, 1-[[1-[2-(3-Hydroxyazetidin-1-yl)ethyl]-6-oxo-pyrimidin-5-yl]amino]-3-[4-(trifluoromethoxy)phenyl]-6,7-dihydro-5H-cyclopenta[d]pyridazin-4-one]: the pIC50 is 6.51.

As for `COC(=O)CCCn1cccc(Nc2nn(-c3ccc(OC(F)(F)F)cc3)c(=O)c3c2CCC3)c1=O` [Example 38, methyl 4-[2-oxo-3-[[4-oxo-3-[4-(trifluoromethoxy)phenyl]-6,7-dihydro-5H-cyclopenta[d]pyridazin-1-yl]amino]-1-pyridyl]butanoate], the pIC50 is 7.64. In the case of `O=C(O)C1CCCN1CCn1cccc(Nc2nn(-c3ccc(OC(F)(F)F)cc3)c(=O)c3ccccc23)c1=O` (stereo not shown) [Example 114, 1-[2-[2-oxo-3-[[4-oxo-3-[4-(trifluoromethoxy)phenyl]phthalazin-1-yl]amino]-1-pyridyl]ethyl]pyrrolidine-2-carboxylic acid], the pIC50 was 6.96.
